Source: paper PMC10487517, “Impacts of Halogen Substitutions on Bisphenol A Compounds Interaction with Human Serum Albumin: Exploring from Spectroscopic Techniques and Computer Simulations” (International Journal of Molecular Sciences, 2023)

Legend:
HSA [1] = target: T1, HSA (Homo sapiens, UniProt P02768); details: level of the Ka value; cited from earlier work
T1 construct: HSA and Tris were obtained from Sigma-Aldrich, St. Louis, MI, USA; purchased Sigma-Aldrich

HSA [2] = target: T1, HSA; assay: Circular dichroism spectroscopy, HSA secondary structure (CONTINLL); details: [HSA] = [ligand] = 1.0 × 10^−6 M; for β-Sheet: free HSA 7.7; for β-Turn: free HSA 14.1; for Random Coil: free HSA 26.9; for α-Helix: free HSA 51.4
Text: The concentration of HSA and the ligands was set as 1.0 × 10^−6 M. The instrumental parameters were set as follows: path length of 1 mm and scanning speed of 100 nm min^−1.

HSA [3] = target: T1, HSA; assay: Site-specific competitive experiment (fluorescence) with site markers; assay type: binding; details: for Kd: Ka, room temperature, n = 3; for primary binding site on HSA: site-marker competition
Experimental: The site-specific competitive experiment was conducted following the methodology described in the literature, using […], ibuprofen, and phenylbutazone as site-specific probes. First, a 1:1 complex of the site-specific probe with HSA was prepared in the buffer solution. […] This experiment was conducted under the same test conditions as the thermodynamic experiment, except at room temperature.

HSA [4] = target: T1, HSA; assay: Fluorescence quenching / fluorescence–thermodynamic experiment with HSA; assay type: binding; details: for Ksv: Stern–Volmer quenching constant, Tris-HCl pH 7.4; for Kd: Ka, binding constant, double logarithmic equation; for ∆H: enthalpy change of binding; for ∆H / ∆S: from Ka at 298, 303, 310 K; for ∆S: entropy change of binding; for fluorescence quenching mechanism: from Kq and trend of Ksv with temperature; for main binding forces: from signs of ΔH and ΔS
Experimental: Prior to taking steady-state fluorescence measurements, the HSA and ligand mixture solution was given 2 min to equilibrate.
To account for the ligand concentration in the study system, which was much lower than the 10^−5 M level, the inner-filter effect of the ligand was neglected. The Stern–Volmer equation and double logarithmic equation (Equations (1)–(3)) were used to analyze the data of fluorescence spectra. Thermodynamic parameters were obtained using Equation (4) to determine the driving forces in the binding process. […] In addition, R and T are the gas constant at room temperature and the temperature in Kelvin, respectively.

HSA [5] = target: T1, HSA; assay: Three-dimensional fluorescence spectra of HSA with ligand; details: [HSA] = [ligand] = 1.0 × 10^−6 M; for Peak 1 ∆λ: free HSA 62; for Peak 2 ∆λ: free HSA 109; for Peak 2 λex/λem: free HSA 225/334; for Peak 1 λex/λem: free HSA 279/341; for Peak 1 F: free HSA 368.7; for Peak 2 F: free HSA 801.7; for change of Stokes shift of peak 2: versus free HSA
HSA [6] = target: T1, HSA; assay: Site-specific competitive experiment (fluorescence) with site markers; assay type: binding; details: Ka, with Digoxigenin, [Ligands]/[Site Marker] 1:1; room temperature; n = 3
[7] = Control group, [Ligands]/[Site Marker] 1:0
[8] = with Ibuprofen, [Ligands]/[Site Marker] 1:1
[9] = with Phenylbutazone, [Ligands]/[Site Marker] 1:1
[10] = 298 K, quenching rate constant, Kq=Ksv/τ0, τ0 6.30 ns
[11] = 303 K, quenching rate constant, Kq=Ksv/τ0, τ0 6.30 ns
[12] = 310 K, quenching rate constant, Kq=Ksv/τ0, τ0 6.30 ns
[13] = compared with maximum scattering collision quenching rate constant for dynamic quenching

T1 sequence (P02768 25-609): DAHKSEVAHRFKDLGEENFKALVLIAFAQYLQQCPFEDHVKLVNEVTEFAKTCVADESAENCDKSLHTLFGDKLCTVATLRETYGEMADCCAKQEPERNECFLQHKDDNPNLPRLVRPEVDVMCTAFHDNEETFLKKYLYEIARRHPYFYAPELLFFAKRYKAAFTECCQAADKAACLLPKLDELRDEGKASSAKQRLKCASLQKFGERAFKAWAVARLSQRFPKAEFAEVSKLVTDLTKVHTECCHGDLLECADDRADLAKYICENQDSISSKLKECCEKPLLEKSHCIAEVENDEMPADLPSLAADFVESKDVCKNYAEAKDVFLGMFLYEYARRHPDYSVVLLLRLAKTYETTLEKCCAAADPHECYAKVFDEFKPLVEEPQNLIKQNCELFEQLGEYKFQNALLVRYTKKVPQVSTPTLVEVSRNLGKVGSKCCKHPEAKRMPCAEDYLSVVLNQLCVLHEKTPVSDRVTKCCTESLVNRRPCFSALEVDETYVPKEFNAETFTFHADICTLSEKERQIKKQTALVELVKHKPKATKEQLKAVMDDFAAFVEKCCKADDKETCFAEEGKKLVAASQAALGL

SMILES	β-Sheet (HSA [2])	β-Turn (HSA [2])	Random Coil (HSA [2])	α-Helix (HSA [2])	Kd (HSA [3]; [7])	Kd (HSA [3]; [8])	Kd (HSA [3]; [9])	primary binding site on HSA (HSA [3])	∆G (HSA [4]; 298 K)	Kq (HSA [4]; [10])	∆G (HSA [4]; 303 K)	Ksv (HSA [4]; 303 K)	Kq (HSA [4]; [11])	∆G (HSA [4]; 310 K)	Ksv (HSA [4]; 310 K)	Kq (HSA [4]; [12])	Kd (HSA [4]; 298 K)	Kd (HSA [4]; 303 K)	Kd (HSA [4]; 310 K)	Kq (HSA [4]; [13])	further results
CC(C)(c1ccc(O)cc1)c1ccc(O)cc1 [BPA, Bisphenol A]																					Ka (HSA [1]): ~1000 M⁻¹
CC(C)(c1cc(Br)c(O)c(Br)c1)c1cc(Br)c(O)c(Br)c1 [TBBPA, tetrabromobisphenol A]	7.3%	14.7%	29.8%	48.2%	734 nM	740 nM	1230 nM	site I	-7.906 kcal/mol	1.210 10^14 M^−1·s^−1	-8.114 kcal/mol	7.534 10^5 M^−1	1.211 10^14 M^−1·s^−1	-8.408 kcal/mol	7.627 10^5 M^−1	1.226 10^14 M^−1·s^−1	1600 nM	1390 nM	1180 nM	greater than 2.0 × 10^10 M^−1·s^−1	∆H (HSA [4]): 4.587 kcal/mol; ∆S (HSA [4]): 175.4 J·moL^−1·K^−1; fluorescence quenching mechanism (HSA [4]): static quenching mechanism; main binding forces (HSA [4]): hydrophobic interactions; Peak 1 ∆λ (HSA [5]): 59 nm; Peak 2 ∆λ (HSA [5]): 103 nm; Peak 2 λex/λem (HSA [5]): 225/328; Peak 1 λex/λem (HSA [5]): 279/338; Peak 1 F (HSA [5]): 254.0; Peak 2 F (HSA [5]): 575.5; change of Stokes shift of peak 2 (HSA [5]): 6 nm; Kd (HSA [6]): 743 nM
CC(C)(c1cc(Cl)c(O)c(Cl)c1)c1cc(Cl)c(O)c(Cl)c1 [TCBPA, tetrachlorobisphenol A]	8.2%	14.2%	27.2%	50.4%	1370 nM	1320 nM	3130 nM	site I	-7.187 kcal/mol	0.2135 10^14 M^−1·s^−1	-7.084 kcal/mol	1.296 10^5 M^−1	0.2083 10^14 M^−1·s^−1	-6.943 kcal/mol	1.289 10^5 M^−1	0.2073 10^14 M^−1·s^−1	4900 nM	9080 nM	11900 nM	greater than 2.0 × 10^10 M^−1·s^−1	∆H (HSA [4]): -13.23 kcal/mol; ∆S (HSA [4]): −84.86 J·moL^−1·K^−1; fluorescence quenching mechanism (HSA [4]): mixed quenching mechanism; main binding forces (HSA [4]): hydrogen bonds and van der Waals forces; Peak 1 ∆λ (HSA [5]): 61 nm; Peak 2 ∆λ (HSA [5]): 108 nm; Peak 2 λex/λem (HSA [5]): 226/334; Peak 1 λex/λem (HSA [5]): 279/340; Peak 1 F (HSA [5]): 323.4; Peak 2 F (HSA [5]): 692.6; change of Stokes shift of peak 2 (HSA [5]): 1 nm; Kd (HSA [6]): 1280 nM
